Results as given in ChEMBL document CHEMBL2169758, “Evaluation of new scaffolds of myeloperoxidase inhibitors by rational design combined with high-throughput virtual screening” (J Med Chem, 2012).
pIC50, pKd: −log10 of the molar value. The source made the active and inactive calls. No cut-off for these calls is given here.

Columns and labels:
Myeloperoxidase [1] = molecular target: T1, Myeloperoxidase (Homo sapiens, UniProt P05164); assay: Inhibition of myeloperoxidase
T1 sequence (P05164 whole entry): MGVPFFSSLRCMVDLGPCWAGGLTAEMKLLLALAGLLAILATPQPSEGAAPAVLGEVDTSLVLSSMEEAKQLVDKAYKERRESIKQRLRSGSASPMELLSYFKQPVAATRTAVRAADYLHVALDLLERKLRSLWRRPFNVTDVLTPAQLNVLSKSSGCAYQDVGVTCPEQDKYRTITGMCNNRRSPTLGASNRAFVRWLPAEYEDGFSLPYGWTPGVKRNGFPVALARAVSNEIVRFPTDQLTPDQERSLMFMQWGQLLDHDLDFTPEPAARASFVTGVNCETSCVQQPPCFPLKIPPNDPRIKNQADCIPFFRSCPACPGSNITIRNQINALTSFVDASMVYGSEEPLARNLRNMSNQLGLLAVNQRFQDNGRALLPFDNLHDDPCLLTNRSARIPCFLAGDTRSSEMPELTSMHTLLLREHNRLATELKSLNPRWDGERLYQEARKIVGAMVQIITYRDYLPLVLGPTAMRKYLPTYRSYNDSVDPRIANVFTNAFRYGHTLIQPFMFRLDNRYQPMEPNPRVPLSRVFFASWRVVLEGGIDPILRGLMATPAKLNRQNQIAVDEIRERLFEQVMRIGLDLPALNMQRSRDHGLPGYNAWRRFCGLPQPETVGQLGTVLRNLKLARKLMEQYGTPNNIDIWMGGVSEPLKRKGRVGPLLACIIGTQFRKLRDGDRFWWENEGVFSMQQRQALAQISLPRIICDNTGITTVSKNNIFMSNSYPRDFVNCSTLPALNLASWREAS

[2] = molecular target: T2, Myeloperoxidase (Homo sapiens) (UniProt P05164); assay: Inhibition of human recombinant myeloperoxidase assessed as compound 1 formation by spectrophotometry in presence of H2O2
T2 sequence (whole entry): T1 sequence (P05164 whole entry)

Myeloperoxidase [3] = molecular target: T1, Myeloperoxidase; assay: Inhibition of recombinant human myeloperoxidase assessed as taurine chloramine production after 5 mins by spectrophotometry in presence of H2O2; assay type: single protein
[4] = molecular target: T2, Myeloperoxidase (Homo sapiens); assay: Inhibition of human recombinant myeloperoxidase-mediated Apo B-100 oxidation on LDL at 1.25 uM after 5 min by ELISA
[5] = molecular target: T2, Myeloperoxidase (Homo sapiens); assay: Inhibition of human recombinant myeloperoxidase-mediated Apo B-100 oxidation on LDL at 50 uM after 5 min by ELISA
[6] = molecular target: T2, Myeloperoxidase (Homo sapiens); assay: Inhibition of human recombinant myeloperoxidase-mediated Apo B-100 oxidation on LDL at 5 uM after 5 min by ELISA
[7] = molecular target: T2, Myeloperoxidase (Homo sapiens); assay: Ratio of apparent rate constant of compound 1 formation to apparent rate constant of compound 2 formation for human recombinant myeloperoxidase
[8] = molecular target: T2, Myeloperoxidase (Homo sapiens); assay: Inhibition of human recombinant myeloperoxidase assessed as compound 2 formation by spectrophotometry in presence of H2O2
Myeloperoxidase [9] = molecular target: T1, Myeloperoxidase; assay: Inhibition of recombinant human myeloperoxidase
Myeloperoxidase [10] = molecular target: T1, Myeloperoxidase; assay: Binding affinity to recombinant human myeloperoxidase

| Compound | Rate constant for compound I formation [2] | pIC50 (Myeloperoxidase [3]) | inhibition [4] | inhibition [5] | inhibition [6] | other results |
| --- | --- | --- | --- | --- | --- | --- |
| CC(C)CN1C(=O)C2=NC=NC2=NC1=S | – | – | – | – | – | pIC50 (Myeloperoxidase [1]): 6.06 |
| Oc1ccccc1CN1CCCN(Cc2ccccc2O)C1 | 5.1 ×10⁶ /M/s | 6.30 | 62% | 11% | 4.5% | – |
| COc1ccc2cc(CN(Cc3ccc(F)cc3)C(=S)NCCCN(C)C)c(O)nc2c1 | 9.36 ×10⁵ /M/s | – | inactive | inactive | inactive | – |
| NC1=Nc2nc3ccccc3n2C(c2ccc(OCC(=O)O)cc2)N1 (stereo not given) | 6.8 ×10⁵ /M/s | 5.43 | inactive | inactive | inactive | – |
| Cn1c(=O)[nH]c(=O)c2c1nc(NCCN)n2CCCOc1ccccc1 | 5.1 ×10⁶ /M/s | 6.34 | 11% | 6% | 2.6% | Ratio [7]: 24300; Activity [8]: 210 M⁻¹ s⁻¹ |
| CCC1=CCCc2cc(OC)ccc21 | – | – | – | – | – | pIC50 (Myeloperoxidase [1]): 5.52 |
| COc1cc(OC)c(C2N=C(N)Nc3nc4ccccc4n32)cc1OC (stereo not given) | 1.4 ×10⁶ /M/s | 5.46 | inactive | inactive | inactive | Ratio [7]: 1.27e+06; Activity [8]: 1.1 M⁻¹ s⁻¹ |
| C(=N\Nc1nc2ccccc2[nH]1)/c1c[nH]c2ccccc12 | 4.1 ×10⁷ /M/s | 4.92 | inactive | inactive | inactive | – |
| CS(=O)(=O)Nc1ccc([N+](=O)[O-])cc1Oc1ccccc1 [NIMESULIDE] | – | – | – | – | – | pIC50 (Myeloperoxidase [9]): 5.68 |
| O=c1c(O)c(-c2ccc(O)c(O)c2)oc2cc(O)cc(O)c12 [QUERCETIN] | – | – | – | – | – | pIC50 (Myeloperoxidase [1]): 5.90 |
| COc1ccc2cc(CN(Cc3ccc(F)cc3)C(=S)NCCCN(C)C)c(=O)[nH]c2c1 | – | 5.42 | – | – | – | – |
| O=C(NO)c1ccccc1O [SALICYLHYDROXAMIC ACID] | – | – | – | – | – | pIC50 (Myeloperoxidase [9]): 5.52; pKd (Myeloperoxidase [10]): 5.70 |
| NCCc1c[nH]c2ccc(F)cc12 | – | – | – | – | – | pIC50 (Myeloperoxidase [9]): 6.10 |
| COc1cc(-c2nc(-c3ccccc3)c(-c3ccccc3)[nH]2)ccc1OCC(=O)O | 1.9 ×10⁶ /M/s | 6.01 | inactive | inactive | inactive | – |
| COc1ccccc1N1CCN(C(=O)CSc2ncccc2-c2nc3ccccc3[nH]2)CC1 | – | 5.21 | inactive | inactive | inactive | – |
